The values below come from US20250235434A1, “RIFABUTIN ANALOGS FOR THE TREATMENT OF DISEASE” (BIOVERSYS AG, priority 2022, published 2025).

Assay type in all cases: cell-based
Experiment [1] concerns A. baumannii (HUMC1 strain). The experiment in a line: MIC by broth microdilution against A. baumannii. The note with it: Acinetobacter baumannii, RPMI medium supplemented with 10% FCS, 35° C. for 20 hours, visual reading. For orientation: Broth dilution looks for growth in wells or tubes with falling amounts of substance.
In the next experiment the test system is M. kansasii (ATCC 12478). As to the kind of experiment: MIC against M. kansasii (resazurin assay). The note with it: Mycobacterium kansasii, ATCC12478, 168 h, Middlebrook 7H9 + ADC, 90% growth inhibition, 7 days. Background: Alamar Blue is a resazurin reagent that responds to reducing activity.
Experiment [2] deals with M. tuberculosis H37Rv (ATCC 27294). The experiment in a line: microbe, parasite or virus in culture. The note with it: Mycobacterium tuberculosis, 120 h.
The next experiment relates to M. avium (ATCC 25291). As to the kind of experiment: MIC against M. avium (resazurin assay). The settings on record: Mycobacterium avium, ATCC25291, 168 h, Middlebrook 7H9 + ADC, 90% growth inhibition, 7 days.
The test system of experiment [3] is S. aureus (UAMS-1625 strain). The experiment in a line: MIC by broth microdilution against S. aureus. The settings on record: Staphylococcus aureus, 20 h, read-out: MIC S. aureus.
Experiment [4] concerns M. smegmatis (ATCC 700084). The experiment in a line: MIC against M. smegmatis (resazurin assay). The note with it: Mycolicibacterium smegmatis, ATCC700084, Middlebrook 7H9 + ADC, 90% growth inhibition, 20 h.
In experiment [5] the test system is M. abscessus (ATCC 19977). The experiment in a line: MIC by broth microdilution against M. abscessus. The note with it: Mycobacteroides abscessus, ATCC19977, 20 h, read-out: MIC M. abscessus.
In the next experiment the test system is M. xenopi (ATCC 19250). The experiment in a line: MIC against M. xenopi (resazurin assay). The note with it: Mycobacterium xenopi, ATCC19250, 168 h, Middlebrook 7H9 + ADC, 90% growth inhibition, 7 days.
Where [6] appears, read: ATCC 19977, Middlebrook 7H9 broth with ADC supplement, visual reading.

Values after ≈ are worked out from the molar mass of the structure shown. Like-named read-outs stand apart in the source and are kept apart here.

As to `CO[C@H]1/C=C/O[C@@]2(C)Oc3c(C)c(O)c4c(c3C2=O)C2=NC3(CCN(CC(C)C)CC3)NC2=C(NC(=O)/C(C)=C\C=C\[C@H](C)[C@H](O)[C@@H](C)[C@@H](O)[C@@H](C)[C@H](OC(=O)CN2CCC(Oc3ccccc3)CC2)[C@@H]1C)C4=O` [Compound 25], the MIC turned out to be 0.06 µg/mL (≈ 58.7 nM) in experiment [1]; 0.02 µg/mL in the experiment on M. kansasii (ATCC 12478); 0.008 µg/mL (≈ 7.83 nM) in experiment [2]; 0.8 µg/mL in the experiment with M. avium (ATCC 25291); 1 µg/mL (≈ 978 nM) in experiment [3]; 0.1 µg/mL in experiment [4]. The MIC is 1 µg/mL (≈ 978 nM) in experiment [5] (setting [6]) and 0.02 µg/mL with M. xenopi (ATCC 19250).

As to `CO[C@H]1/C=C/O[C@@]2(C)Oc3c(C)c(O)c4c(c3C2=O)C2=NC3(CCN(CC(C)C)CC3)NC2=C(NC(=O)/C(C)=C\C=C\[C@H](C)[C@H](O)[C@@H](C)[C@@H](O)[C@@H](C)[C@H](OC(=O)CN2CCC(N3CCCCC3)CC2)[C@@H]1C)C4=O` [Compound 26], the MIC in experiment [1] is not above 0.002 µg/mL; with M. kansasii (ATCC 12478) it was 0.02 µg/mL; in experiment [2] it was 0.007 µg/mL (≈ 6.91 nM); in the experiment with M. avium (ATCC 25291) it was 1.15 µg/mL; in experiment [3], 0.06 µg/mL (≈ 59.2 nM); in experiment [4], 0.04 µg/mL. Moreover, the MIC in experiment [5] (setting [6]) was 0.5 µg/mL (≈ 493 nM); with M. xenopi (ATCC 19250), 0.06 µg/mL.

As to `CO[C@H]1/C=C/O[C@@]2(C)Oc3c(C)c(O)c4c(c3C2=O)C2=NC3(CCN(CC(C)C)CC3)NC2=C(NC(=O)/C(C)=C\C=C\[C@H](C)[C@H](O)[C@@H](C)[C@@H](O)[C@@H](C)[C@H](OC(=O)CN2CCC3C(CCCN3Cc3ccccc3)C2)[C@@H]1C)C4=O` (stereo partly shown) [Compound 28], the MIC in experiment [1] was determined as 0.016 µg/mL (≈ 14.9 nM); in the experiment on M. kansasii (ATCC 12478), 0.01 µg/mL; in experiment [2], 0.003 µg/mL (≈ 2.79 nM); with M. avium (ATCC 25291), 3.9 µg/mL; in experiment [3], 0.125 µg/mL (≈ 116 nM); in experiment [4] it was 0.1 µg/mL. Besides, the MIC in experiment [5] was found to be 0.125 µg/mL (≈ 116 nM); in the experiment with M. xenopi (ATCC 19250), 0.03 µg/mL.

As for `CO[C@H]1/C=C/O[C@@]2(C)Oc3c(C)c(O)c4c(c3C2=O)C2=NC3(CCN(CC(C)C)CC3)NC2=C(NC(=O)/C(C)=C\C=C\[C@H](C)[C@H](O)[C@@H](C)[C@@H](O)[C@@H](C)[C@H](OC(=O)CN2CCC(NS(=O)(=O)c3ccccc3)CC2)[C@@H]1C)C4=O` [Compound 29], the MIC in experiment [1] worked out at 0.03 µg/mL (≈ 27.6 nM); in the experiment with M. kansasii (ATCC 12478), 0.01 µg/mL; in experiment [2], 0.003 µg/mL (≈ 2.76 nM); in the experiment on M. avium (ATCC 25291), 0.6 µg/mL; in experiment [3] it was 0.5 µg/mL (≈ 461 nM); in experiment [4], 0.09 µg/mL. For the same compound, the MIC in experiment [5] (setting [6]) was 0.25 µg/mL (≈ 230 nM); with M. xenopi (ATCC 19250), 0.01 µg/mL.

Take `CO[C@H]1/C=C/O[C@@]2(C)Oc3c(C)c(O)c4c(c3C2=O)C2=NC3(CCN(CC(C)C)CC3)NC2=C(NC(=O)/C(C)=C\C=C\[C@H](C)[C@H](O)[C@@H](C)[C@@H](O)[C@@H](C)[C@H](OC(=O)CN2CCc3[nH]c5ccccc5c3C2)[C@@H]1C)C4=O` [Compound 33]: the MIC stood at 0.125 µg/mL (≈ 123 nM) in experiment [1]; 0.01 µg/mL with M. kansasii (ATCC 12478); 0.008 µg/mL (≈ 7.86 nM) in experiment [2]; 0.3 µg/mL with M. avium (ATCC 25291); 1 µg/mL (≈ 983 nM) in experiment [3]; 0.1 µg/mL in experiment [4]. For the same compound, the MIC in experiment [5] (setting [6]) was 0.5 µg/mL (≈ 492 nM); in the experiment with M. xenopi (ATCC 19250), 0.7 µg/mL.

On to `CO[C@H]1/C=C/O[C@@]2(C)Oc3c(C)c(O)c4c(c3C2=O)C2=NC3(CCN(CC(C)C)CC3)NC2=C(NC(=O)/C(C)=C\C=C\[C@H](C)[C@H](O)[C@@H](C)[C@@H](O)[C@@H](C)[C@H](OC(=O)CN2CCCN(c3ccc(F)cc3)CC2)[C@@H]1C)C4=O` [Compound 34], for which the MIC was found to be 0.125 µg/mL (≈ 120 nM) in experiment [1]; 0.009 µg/mL in the experiment on M. kansasii (ATCC 12478); 0.008 µg/mL (≈ 7.7 nM) in experiment [2]; 0.5 µg/mL in the experiment on M. avium (ATCC 25291); 2 µg/mL (≈ 1920 nM) in experiment [3]; 0.11 µg/mL in experiment [4]. The values for the MIC (in experiment [5] (setting [6]); in the experiment with M. xenopi (ATCC 19250)) were 0.5 µg/mL (≈ 481 nM) and 0.01 µg/mL, respectively.

`CO[C@H]1/C=C/O[C@@]2(C)Oc3c(C)c(O)c4c(c3C2=O)C2=NC3(CCN(CC(C)C)CC3)NC2=C(NC(=O)/C(C)=C\C=C\[C@H](C)[C@H](O)[C@@H](C)[C@@H](O)[C@@H](C)[C@H](OC(=O)C[n+]2ccc(N(C)C)cc2)[C@@H]1C)C4=O` [Compound 35]: the MIC is not above 0.002 µg/mL in experiment [1]; 0.003 µg/mL in the experiment on M. kansasii (ATCC 12478); 0.0025 µg/mL in experiment [2]; 0.8 µg/mL with M. avium (ATCC 25291); 0.06 µg/mL in experiment [3]; 0.03 µg/mL in experiment [4]. The MIC was 0.5 µg/mL in experiment [5] (setting [6]) and 0.04 µg/mL in the experiment on M. xenopi (ATCC 19250).

As for `CO[C@H]1/C=C/O[C@@]2(C)Oc3c(C)c(O)c4c(c3C2=O)C2=NC3(CCN(CC(C)C)CC3)NC2=C(NC(=O)/C(C)=C\C=C\[C@H](C)[C@H](O)[C@@H](C)[C@@H](O)[C@@H](C)[C@H](OC(=O)CN2CCC(N(C)c3ccccc3)CC2)[C@@H]1C)C4=O` [Compound 39], the MIC in experiment [1] is not above 0.03 µg/mL; in the experiment on M. kansasii (ATCC 12478), 0.003 µg/mL; in experiment [2], 0.0001 µg/mL (≈ 0.0966 nM); in the experiment with M. avium (ATCC 25291), 0.4 µg/mL; in experiment [3], 0.125 µg/mL (≈ 121 nM); in experiment [4] it was 0.06 µg/mL. For the same compound, the MIC in experiment [5] amounted to 0.125 µg/mL (≈ 121 nM); in the experiment with M. xenopi (ATCC 19250), 0.003 µg/mL.
